For 10 molecules, EC50 results are on record in patent US10844049B2, “GLP-1R agonists and uses thereof” (QILU REGOR THERAPEUTICS INC., priority 2018, dated 2020).

The target of this assay is GLP1R (Homo sapiens, UniProt P43220). Put plainly: GLP1R cAMP HTRF assay, HEK293/GLP-1R/CRE/Luc (HEK293T cells). In kind it is cell-based. The settings on record: read-out: EC50. The gist of the method:
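cAMP accumulation via HTRF after 30 min, 37 °C exposure of 1000 receptor-expressing cells/well to compound (0.5% DMSO final) in IBMX (500 μM)/0.1% BSA DPBS.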
(In general: Time-resolved FRET reads energy transfer from a long-lived donor to a nearby acceptor.)

pEC50: −log10 of the molar value.

GLP1R, sequence (P43220 24-463): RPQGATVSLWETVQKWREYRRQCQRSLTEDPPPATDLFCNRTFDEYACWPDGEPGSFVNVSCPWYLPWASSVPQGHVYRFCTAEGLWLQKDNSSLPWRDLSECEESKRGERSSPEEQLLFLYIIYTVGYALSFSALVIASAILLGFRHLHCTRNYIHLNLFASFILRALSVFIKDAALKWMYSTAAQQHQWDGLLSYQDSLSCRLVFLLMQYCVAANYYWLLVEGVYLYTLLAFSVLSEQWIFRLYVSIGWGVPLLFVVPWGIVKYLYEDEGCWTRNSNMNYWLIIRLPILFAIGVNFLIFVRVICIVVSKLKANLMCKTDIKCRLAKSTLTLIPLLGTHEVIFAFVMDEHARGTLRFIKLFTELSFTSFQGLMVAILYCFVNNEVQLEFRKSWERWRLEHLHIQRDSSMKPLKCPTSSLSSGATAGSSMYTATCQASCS

As to `O=C(O)c1ccc2nc(CN3CC=C(c4ccc(F)c(OCc5ccc(Cl)cc5F)c4F)CC3)n(C[C@@H]3CCO3)c2c1` [Compound 63, (S)-2-((4-(3-(4-chloro-2-fluorobenzyloxy)-2,4-difluorophenyl)-5,6-dihydropyridin-1(2H)-yl)methyl)-1-(oxetan-2-ylmethyl)-1H-benzo[d]imidazole-6-carboxylic acid], the pEC50 (in general, −log10 of the EC50, conventionally taken in molar units) is at least 6.00.

For the molecule `N#Cc1ccc(COc2cc(C3=CCN(Cc4nc5ccc(C(=O)O)cc5n4C[C@@H]4CCO4)CC3)ccc2F)c(F)c1` [Compound 204, (S)-2-((4-(3-((4-cyano-2-fluorobenzyl)oxy)-4-fluorophenyl)-3,6-dihydropyridin-1(2H)-yl)methyl)-1-(oxetan-2-ylmethyl)-1H-benzo[d]imidazole-6-carboxylic acid], the pEC50 was at least 7.82.

Take `O=C(O)c1ccc2nc(CN3CCN(c4cccn(CCc5ccc(Cl)cc5F)c4=O)CC3)n(C[C@@H]3CCO3)c2c1` [Compound 8, (S)-2-((4-(1-(4-chloro-2-fluorophenethyl)-2-oxo-1,2-dihydropyridin-3-yl)piperazin-1-yl)methyl)-1-(oxetan-2-ylmethyl)-1h-benzo[d]imidazole-6-carboxylic acid]: the pEC50 is under 6.00.

For `O=C(O)c1ccc2nc(CN3CC=C(c4cncc(OCc5ccc(Cl)cc5F)c4)CC3)n(C[C@@H]3CCO3)c2c1` [Compound 32, (S)-2-((5-((4-chloro-2-fluorobenzyl)oxy)-3′,6′-dihydro-[3H′-bipyridin]-1′(2′H)-yl)methyl)-1-(oxetan-2-ylmethyl)-1 h-benzo[d]imidazole-6-carboxylic acid], the pEC50 was at least 6.00.

Turning to `O=C(O)c1ccc2nc(CN3CCC(c4ccc5ccn(Cc6ccc(Cl)cc6F)c5n4)CC3)n(C[C@@H]3CCO3)c2c1` [Compound 24, (S)-2-((4-(1-(4-chloro-2-fluorobenzyl)-1H-pyrrolo[2,3-b]pyridin-6-yl)piperidin-1-yl)methyl)-1-(oxetan-2-ylmethyl)-1H-benzo[d]imidazole-6-carboxylic add], the negative logarithm of the EC50 (pEC50) is at least 6.82.

Take `O=C(O)c1ccc2nc(CN3CC4CC3CN4c3cccc(OCc4ccc(Cl)cc4F)n3)n(C[C@@H]3CCO3)c2c1` (stereo partly drawn) [Compound 16, 2-((5-(6-((4-chloro-2-fluorobenzyl)oxy)pyridin-2-yl)-2,5-diazabicyclo[2.2.1]heptan-2-yl)methyl)-1-(((S)-oxetan-2-yl)methyl)-1 h-benzo[d]imidazole-6-carboxylic acid]: the pEC50 is at least 6.82.

`O=C(O)c1ccc2nc(CN3CC=C(c4nc(OCc5ccc(C#CC6CC6)cc5F)c(F)cc4F)CC3)n(C[C@@H]3CCO3)c2c1` [Compound 213, (S)-2-((4-(6-(4-(cyclopropylethynyl)-2-fluorobenzyloxy)-3,5-difluoropyridin-2-yl)-5,6-dihydropyridin-1(2H)-yl)methyl)-3-(oxetan-2-ylmethyl)-3H-benzo[d]imidazole-5-carboxylic add]: the pEC50 is at least 7.82.

Turning to `O=C(O)c1ccc2nc(CN3CC=C(c4nc(OCc5ccc(C(F)(F)F)nc5)c(F)cc4F)CC3)n(C[C@@H]3CCO3)c2c1` [Compound 220, (S)-2-((3,5-difluoro-6-((6-(trifluoromethyl)pyridin-3-yl)methoxy)-5′,6′-dihydro-[2,4′-bipyridin]-1′(2′H)-yl)methyl)-1-(oxetan-2-ylmethyl)-1H-benzo[d]imidazole-6-carboxylic acid], the pEC50 is at least 7.82.

For the molecule `N#CC1(c2cccc(OCc3ccc(Cl)cc3F)n2)CCN(Cc2nc3ccc(C(=O)O)cc3n2C[C@@H]2CCO2)CC1` [Compound 66, (S)-2-((4-(6-((4-chloro-2-fluorobenzyl)oxy)pyridin-2-yl)-4-cyanopiperidin-1-yl)methyl)-1-(oxetan-2-ylmethyl)-1H-benzo[d]imidazole-6-carboxylic acid], the pEC50 was under 6.00.

For the molecule `CC(Oc1cccc(C2=CCN(Cc3nc4ccc(C(=O)O)cc4n3C[C@@H]3CCO3)CC2)n1)c1ccc(Cl)cc1F` (stereo partly shown) [Compound 70], the pEC50 is at least 7.82.
